Results published in US7217722B2 (Kirin Beer Kabushiki Kaisha, priority 2000, dated 2007).
Structures can show the parent of a compound that is named as a salt.

Tested on: Human-derived histiocyte lymphoma (U937/CCR2)
Experiment: Leukocyte migration inhibitory activity (MCP-1 induced migration, CHEMOTAXICELL)
Format: cell-based
Settings: Homo sapiens, U-937, 1 h, test compound 0.03 μM; U937/CCR2, MCP-1, 1 hr; read-out: Migration inhibition (%) ± SEM
Procedure: Human-derived histiocyte lymphoma (U937/CCR2), in which mouse-derived CCR2 had been highly expressed, was suspended in a 0.1% BSA-containing RPMI 1640 medium, to which a test compound had been added (5×10^6/ml), and the suspension was incubated for 20 min. A chemical solution (500 μl) (0.1% BSA-containing RPMI 1640 medium DMSO 1%), to which an MCP-1 ligand (1 μM) and the test compound had been added, was added to a 24-well plate. CHEMOTAXICELL was put thereon, and 200 μl of the cell suspension was added to the top layer, followed by migration under 5% carbon dioxide at 37° C. for one hr. The number of cells, which had migrated to the lower chamber, was counted with a particle count analyzer (CDA-500, SYSMEX CORPORATION), and the percentage migration inhibition was calculated by the following equation; Migration inhibition (%)={1−(number of migrated cells in the presence of test compound/number of migrated cells in the absence of test compound)}×100

| Compound | inhibition at 0.03 µM |
| --- | --- |
| COC(=O)C(c1ccccc1)N1CCCC(Nc2ccc3[nH]ncc3c2)C1 (stereo not shown) [Example 221, methyl 2-[3-(1H-5-indazolylamino)piperidino]-2-phenylacetate] | 27.5 ± 33.6% |

Same assay, conditions: Homo sapiens, U-937, 1 h, test compound 0.3 μM; U937/CCR2, MCP-1, 1 hr; read-out: Migration inhibition (%) ± SEM

| Compound | inhibition at 0.3 µM |
| --- | --- |
| c1cc(NC2CCC(NC3CC3)CC2)c2ccncc2c1 (stereo not drawn) [262 (anti), N1-Cyclopropyl-N4-(5-isoquinolyl)-1,4-cyclohexanediamine] | 24.4 ± 8.1% |
| COC(=O)C(c1ccccc1)N1CCCC(Nc2ccc3[nH]ncc3c2)C1 (stereo not shown) [Example 221, methyl 2-[3-(1H-5-indazolylamino)piperidino]-2-phenylacetate] | 90.8 ± 11% |

Same assay, conditions: Homo sapiens, U-937, 1 h, test compound 1 μM; U937/CCR2, MCP-1, 1 hr; read-out: Migration inhibition (%) ± SEM

| Compound | inhibition at 1 µM |
| --- | --- |
| CCCN[C@H]1CC[C@H](Nc2cccc3cnccc23)CC1 [260 (anti)] | 77.4 ± 14.4% |
| c1cc(NC2CCC(NC3CC3)CC2)c2ccncc2c1 (stereo not drawn) [262 (anti), N1-Cyclopropyl-N4-(5-isoquinolyl)-1,4-cyclohexanediamine] | 82.5 ± 6.69% |

Same assay, conditions: Homo sapiens, U-937, 1 h, test compound 3 μM; U937/CCR2, MCP-1, 1 hr; read-out: Migration inhibition (%) ± SEM

| Compound | inhibition at 3 µM |
| --- | --- |
| c1ccc(CCN[C@H]2CC[C@@H](Nc3ccc4[nH]ncc4c3)CC2)cc1 [259 (syn), N1-(1H-5-Indazolyl)-N4-phenylethyl-1,4-cyclohexanediamine] | 85.3 ± 8.5% |
| Brc1ccc(CN2CCC(Nc3ccc4[nH]ncc4c3)CC2)cc1 [Example 22] | 34.8 ± 12.4% |
| CCCNC1CCC(Nc2ccc3[nH]ncc3c2)CC1 (stereo not shown) [Example 243, N1-(1H-5-indazolyl)-N4-propyl-1,4-cyclohexanediamine] | 82.8 ± 7.1% |
| CCCC(C)CN1CCCC(Nc2ccc3[nH]ncc3c2)C1 (stereo not shown) [Example 281, N-(1H-5-indazolyl)-N-[1-(2-methylpentyl)-3-piperidyl]amine] | 100 ± 8.2% |

Same assay, conditions: Homo sapiens, U-937, 1 h, test compound 30 μM; U937/CCR2, MCP-1, 1 hr; read-out: Migration inhibition (%) ± SEM

| Compound | inhibition at 30 µM |
| --- | --- |
| Brc1ccc(CN2CCC(Nc3ccc4[nH]ncc4c3)CC2)cc1 [Example 22] | 92.9 ± 1.3% |

Same assay, conditions: test compound 1 μM; U937/CCR2, MCP-1, 1 hr; 1 µM

| Compound | Migration inhibition (%) ± SEM |
| --- | --- |
| c1cc(NC2CCC(NC3CC3)CC2)c2ccncc2c1 (stereo not drawn) [262 (syn), N1-Cyclopropyl-N4-(5-isoquinolyl)-1,4-cyclohexanediamine] | 69.9 ± 15.1% |

Same assay, conditions: test compound 3 μM; U937/CCR2, MCP-1, 1 hr

| Compound | Migration inhibition (%) ± SEM |
| --- | --- |
| Cl.c1ccc(CN2CCCC(Nc3ccc4[nH]ncc4c3)C2)cc1 (stereo not shown) [Example 21.HCl, N-(1-Benzyl-3-piperidyl)-N(1H-5-indazolyl)amine] | 83.5 ± 3.3% |

Same assay, conditions: test compound 3 μM; U937/CCR2, MCP-1, 1 hr; 3 µM

| Compound | Migration inhibition (%) ± SEM |
| --- | --- |
| c1ccc(CN2CCC(Nc3ccc4[nH]ncc4c3)C2)cc1 (stereo not shown) [Example 146.HCl, N-(1-Benzyltetrahydro-1H-pyrrolyl)-N-(1H-5-indazolyl)amine] | 74.5 ± 1.7% |

Same assay, conditions: test compound 30 μM; U937/CCR2, MCP-1, 1 hr

| Compound | Migration inhibition (%) ± SEM |
| --- | --- |
| Cl.c1ccc(CN2CCCC(Nc3ccc4[nH]ncc4c3)C2)cc1 (stereo not shown) [Example 21.HCl, N-(1-Benzyl-3-piperidyl)-N(1H-5-indazolyl)amine] | 99.1 ± 0.4% |

Same assay, conditions: test compound 30 μM; U937/CCR2, MCP-1, 1 hr; 30 µM

| Compound | Migration inhibition (%) ± SEM |
| --- | --- |
| c1ccc(CN2CCC(Nc3ccc4[nH]ncc4c3)C2)cc1 (stereo not shown) [Example 146.HCl, N-(1-Benzyltetrahydro-1H-pyrrolyl)-N-(1H-5-indazolyl)amine] | 97.9 ± 1.0% |

Target: Rho kinase (fused protein of bovine Rho kinase catalyst region and glutathione S-transferase) (Bos taurus, UniProt Q28021)
Experiment: Rho kinase inhibitory activity (phosphorylation of S6 231–239 substrate, γ32P-ATP)
Format: biochemical
Settings: concentration inhibiting substrate phosphorylation by 50%
Procedure: This permits the substrate to be labeled with the radioisotope.
Thereafter, the substrate was adsorbed to a filter paper. ATP was washed away with a phosphoric acid solution, and the amount of the phosphorylated substrate was then measured with a liquid scintillation counter.

Sequence of Rho kinase (fused protein of bovine Rho kinase catalyst region and glutathione S-transferase) (Q28021 92-354 limits assumed): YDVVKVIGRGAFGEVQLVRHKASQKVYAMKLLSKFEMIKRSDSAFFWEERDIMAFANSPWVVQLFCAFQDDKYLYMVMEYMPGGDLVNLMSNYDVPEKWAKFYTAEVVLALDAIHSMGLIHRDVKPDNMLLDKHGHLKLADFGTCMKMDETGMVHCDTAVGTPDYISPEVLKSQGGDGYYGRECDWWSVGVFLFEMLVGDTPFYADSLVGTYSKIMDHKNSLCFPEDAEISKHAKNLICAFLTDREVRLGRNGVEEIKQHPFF

| Compound | IC50 |
| --- | --- |
| Cc1ccc(CN2CCC(Nc3ccc4[nH]ncc4c3)CC2)cc1 [Example 139, N-(1H-5-Indazolyl)-N-[1-(4-methylbenzyl)-4-piperidyl]amine] | 250 nM |
| O=[N+]([O-])c1cccc(CN2CCC(Nc3ccc4[nH]ncc4c3)CC2)c1 [Example 140, N-(1H-5-Indazolyl)-N-[1-(3-nitrobenzyl)-4-piperidyl]amine] | 465 nM |
| O=[N+]([O-])c1ccc(CN2CCC(Nc3ccc4[nH]ncc4c3)CC2)cc1 [Example 141, N-(1H-5-Indazolyl)-N-[1-(4-nitrobenzyl)-4-piperidyl]amine] | 661 nM |
| c1ccc(COc2ccc(CN3CCC(Nc4ccc5[nH]ncc5c4)CC3)cc2)cc1 [Example 142, N-{1-[4-(Benzyloxy)benzyl]-4-piperidyl}-N-(1H-5-indazolyl)amine] | 655 nM |
| COc1cc(CN2CCC(Nc3ccc4[nH]ncc4c3)CC2)cc(OC)c1 [Example 143, N-[1-(3,5-Dimethoxybenzyl)-4-piperidyl]-N-(1H-5-indazolyl)amine] | 399 nM |
| Clc1cc2c(cc1CN1CCC(Nc3ccc4[nH]ncc4c3)CC1)OCO2 [Example 144, N-{1-[(6-Chloro-1,3-benzodioxol-5-yl)methyl]-4-piperidyl}-N-(1H-5-indazolyl)amine] | 453 nM |
| Oc1ccc(CN2CCC(Nc3ccc4[nH]ncc4c3)CC2)cc1 [Example 145, 4-{[4-(1H-5-Indazolylamino)piperidino]methyl}phenol] | 290 nM |
| COC(=O)c1cccc(CN2CCC(Nc3ccc4[nH]ncc4c3)CC2)c1 [Example 147, Methyl 3-{[4-(1H-5-indazolylamino)piperidino]methyl}benzoate] | 462 nM |
| COC(=O)c1ccc(CN2CCC(Nc3ccc4[nH]ncc4c3)CC2)cc1 [Example 148, Methyl 4-{[4-(1H-5-indazolylamino)piperidino]methyl}benzoate] | 166 nM |
| CC(=O)Oc1ccc(CN2CCC(Nc3ccc4[nH]ncc4c3)CC2)cc1 [Example 149, 4-{[4-(1H-5-Indazolylamino)piperidino]methyl}phenyl acetate] | 204 nM |
| Fc1cccc(Cl)c1CN1CCC(Nc2ccc3[nH]ncc3c2)CC1 [Example 150, N-[1-(2-Chloro-6-fluorobenzyl)-4-piperidyl]-N-(1H-5-indazolyl)amine] | 821 nM |
| Clc1ccccc1CN1CCC(Nc2ccc3[nH]ncc3c2)C1 (stereo not shown) [Example 151, N-[1-(2-Chlorobenzyl)tetrahydro-1H-3-pyrrolyl]-N-(1H-5-indazolyl)amine] | 45 nM |
| Fc1ccc(CN2CCC(Nc3ccc4[nH]ncc4c3)C2)cc1 (stereo not shown) [Example 154, N-[1-(4-Fluorobenzyl)tetrahydro-1H-3-pyrrolyl]-N-(1H-5-indazolyl)amine] | 84 nM |
| Brc1ccc(CN2CCC(Nc3ccc4[nH]ncc4c3)C2)cc1 (stereo not shown) [Example 155, N-[1-(4-Bromobenzyl)tetrahydro-1H-3-pyrrolyl]-N-(1H-5-indazolyl)amine] | 24 nM |
| COc1ccc(CN2CCC(Nc3ccc4[nH]ncc4c3)C2)cc1 (stereo not shown) [Example 156, N-(1H-5-Indazolyl)-N-[1-(4-methoxybenzyl)tetrahydro-1H-3-pyrrolyl]amine] | 2 nM |
| Cc1ccc(CN2CCC(Nc3ccc4[nH]ncc4c3)C2)cc1 (stereo not shown) [Example 157, N-(1H-5-Indazolyl)-N-[1-(4-methylbenzyl)tetrahydro-1H-3-pyrrolyl]amine] | 22 nM |

| Compound | IC50 |
| --- | --- |
| O=[N+]([O-])c1cccc(CN2CCC(Nc3ccc4[nH]ncc4c3)C2)c1 (stereo not shown) [Example 158, N-(1H-5-Indazolyl)-N-[1-(3-nitrobenzyl)tetrahydro-1H-3-pyrrolyl]amine] | 5 nM |
| O=[N+]([O-])c1ccc(CN2CCC(Nc3ccc4[nH]ncc4c3)C2)cc1 (stereo not shown) [Example 159, N-(1H-5-Indazolyl)-N-[1-(4-nitrobenzyl)tetrahydro-1H-3-pyrrolyl]amine] | 12 nM |
| COc1cc(CN2CCC(Nc3ccc4[nH]ncc4c3)C2)cc(OC)c1 (stereo not shown) [Example 160, N-[1-(3,5-Dimethoxybenzyl)tetrahydro-1H-3-pyrrolyl]-N-(1H-5-indazolyl)amine] | 1 nM |
| Clc1ccccc1CN1CCCC(Nc2ccc3[nH]ncc3c2)C1 (stereo not shown) [Example 161, N-[1-(2-Chlorobenzyl)-3-piperidyl]-N-(1H-5-indazolyl)amine] | 13 nM |
| Clc1cccc(CN2CCCC(Nc3ccc4[nH]ncc4c3)C2)c1 (stereo not shown) [Example 162, N-[1-(3-Chlorobenzyl)-3-piperidyl]-N-(1H-5-indazolyl)amine] | 19 nM |
| Clc1ccc(CN2CCCC(Nc3ccc4[nH]ncc4c3)C2)cc1 (stereo not shown) [Example 163, N-[1-(4-Chlorobenzyl)-3-piperidyl]-N-(1H-5-indazolyl)amine] | 11 nM |
| Brc1ccc(CN2CCCC(Nc3ccc4[nH]ncc4c3)C2)cc1 (stereo not shown) [Example 165, N-[1-(4-Bromobenzyl)-3-piperidyl]-N-(1H-5-indazolyl)amine] | 11 nM |
| COc1ccc(CN2CCCC(Nc3ccc4[nH]ncc4c3)C2)cc1 (stereo not shown) [Example 166, N-(1H-5-Indazolyl)-N-[1-(4-methoxybenzyl)-3-piperidyl]amine] | 16 nM |
| Cc1ccc(CN2CCCC(Nc3ccc4[nH]ncc4c3)C2)cc1 (stereo not shown) [Example 167, N-(1H-5-Indazolyl)-N-[1-(4-methylbenzyl)-3-piperidyl]amine] | 9 nM |
| O=[N+]([O-])c1ccc(CN2CCCC(Nc3ccc4[nH]ncc4c3)C2)cc1 (stereo not shown) [Example 169, N-(1H-5-Indazolyl)-N-[1-(4-nitrobenzyl)-3-piperidyl]amine] | 87 nM |
| COc1cc(CN2CCCC(Nc3ccc4[nH]ncc4c3)C2)cc(OC)c1 (stereo not shown) [Example 170, N-[1-(3,5-Dimethoxybenzyl)-3-piperidyl]-N-(1H-5-indazolyl)amine] | 80 nM |
| c1ccc(NC2CCC(Nc3ccc4[nH]ncc4c3)CC2)cc1 (stereo not shown) [Example 172, N1-(1H-5-Indazolyl)-N4-phenyl-1,4-cyclohexanediamine] | 265 nM |
| O=C(CNCc1ccccc1)Nc1ccc2[nH]ncc2c1 [Example 173, N1-(1H-5-Indazolyl)-2-(benzylamino)acetamide] | 446 nM |
| c1ccc(CNCCNc2ccc3[nH]ncc3c2)cc1 [Example 174, N1-Benzyl-N2-(1H-5-indazolyl)-1,2-ethanediamine] | 163 nM |
| CC(=O)n1ncc2cc(NC3CCN(Cc4ccccc4)CC3)ccc21 [Example 176, 1-{5-[(1-Benzyl-4-piperidyl)amino]-1H-5-indazolyl}-1-ethanone] | 4 nM |
